The nature of experiment [1]: Inhibition of Rhinovirus B14 capsid infected in human HeLa Rh cells assessed as reduction in virus-induced cytopathic effect after 3 days by MTS assay. (Cytopathic effects are the visible damage that an infection or toxin causes in cultured cells.)
The nature of experiment [2]: Inhibition of Rhinovirus A02 capsid infected in human HeLa Rh cells assessed as reduction in virus-induced cytopathic effect after 3 days by MTS assay.
Experiment [3] in a line: Inhibition of Rhinovirus A89 capsid infected in human HeLa Rh cells assessed as reduction in virus-induced cytopathic effect after 3 days by MTS assay.
Experiment [4] can be described thus: Inhibition of Rhinovirus A85 capsid infected in human HeLa Rh cells assessed as reduction in virus-induced cytopathic effect after 3 days by MTS assay.
Experiment [5] can be described thus: Inhibition of Rhinovirus A08 capsid infected in human HeLa Rh cells assessed as reduction in virus-induced cytopathic effect after 3 days by MTS assay.
Experiment [6] is described as follows: Inhibition of Rhinovirus A28 capsid infected in human HeLa Rh cells assessed as reduction in virus-induced cytopathic effect after 3 days by MTS assay.
Experiment [7] can be described thus: Inhibition of Rhinovirus B42 capsid infected in human HeLa Rh cells assessed as reduction in virus-induced cytopathic effect after 3 days by MTS assay.
Experiment [8] is described as follows: Inhibition of Rhinovirus B70 capsid infected in human HeLa Rh cells assessed as reduction in virus-induced cytopathic effect after 3 days by MTS assay.

As a reminder, the EC50 is the concentration that produces a half-maximal response.

Turning to `O=[N+]([O-])c1cc(Br)ccc1CC(O)c1ccc(-n2cncn2)cc1` (stereo not given), in experiment [1], the EC50 was 0.25 µM.

As for `O=[N+]([O-])c1cc(Br)ccc1CC(O)c1ccc(-c2ccncc2)cc1` (stereo not given), the EC50 in experiment [1] was determined as 0.59 µM.

For `O=[N+]([O-])c1cc(-c2cccs2)ccc1CC(O)c1ccc(-c2ccncc2)cc1` (stereo not given), the EC50 in experiment [1] turned out to be 1.3 µM.

`O=[N+]([O-])c1cc(Cl)ccc1CC(O)c1ccc(-n2cccn2)cc1` (stereo not given): in experiment [1], the EC50 came to 0.128 µM.

Take `Cc1noc(C)c1-c1ccc(CC(O)c2ccc(-n3cccn3)cc2)c([N+](=O)[O-])c1` (stereo not given): in experiment [1], the EC50 is > 247 µM.

As for `O=[N+]([O-])c1cc(-c2cncs2)ccc1CC(O)c1ccc(-n2cncn2)cc1` (stereo not given), the EC50 in experiment [1] turned out to be 0.4 µM.

Regarding `Cn1nc(C(F)(F)F)cc1-c1ccc(CC(O)c2ccc(-n3cccn3)cc2)c([N+](=O)[O-])c1` (stereo not given), in experiment [1], the EC50 amounted to 0.5 µM.

In the case of `Cc1noc(C)c1-c1ccc(CC(O)c2ccc(-n3cncn3)cc2)c([N+](=O)[O-])c1` (stereo not given), in experiment [1], the EC50 was > 247 µM.

Turning to `Cn1cc(-c2ccc(C[C@H](O)c3ccc(-n4cncn4)cc3)c([N+](=O)[O-])c2)cn1`, the EC50 is 0.06 µM in experiment [1]; > 128 µM in experiment [2]; > 128 µM in experiment [3]; > 128 µM in experiment [4]; > 128 µM in experiment [5]; > 128 µM in experiment [6]. Besides, the EC50 in experiment [7] is > 128 µM; in experiment [8] it was 0.05 µM.

Take `O=[N+]([O-])c1cc(-c2ccco2)ccc1CC(O)c1ccc(-c2ccncc2)cc1` (stereo not given): in experiment [1], the concentration giving a half-maximal response (EC50) came to 1.2 µM.

Consider `O=[N+]([O-])c1cc(F)ccc1CC(O)c1ccc(-n2cccn2)cc1` (stereo not given), for which the EC50 in experiment [1] turned out to be 8.7 µM.

In the case of `Cn1cc(-c2ccc(CC(O)c3ccc(-n4cncn4)cc3)c([N+](=O)[O-])c2)cn1` (stereo not given), in experiment [1], the EC50 came to 0.18 µM.

Consider `Cn1cc(-c2ccc(C[C@@H](O)c3ccc(-n4cncn4)cc3)c([N+](=O)[O-])c2)cn1`, for which the EC50 is > 128 µM in experiment [1]; > 128 µM in experiment [2]; 1.5 µM in experiment [3]; > 128 µM in experiment [4]; > 128 µM in experiment [5]; > 128 µM in experiment [6]. Moreover, the EC50 was > 128 µM in experiment [7] and > 20 µM in experiment [8].

On to `Cn1nc(C(F)(F)F)cc1-c1ccc(CC(O)c2ccc(-c3ccncc3)cc2)c([N+](=O)[O-])c1` (stereo not given), for which, in experiment [1], the EC50 stood at 1 µM.

For `Cn1cc(-c2ccc(C[C@H](O)c3ccc(-n4cccn4)cc3)c([N+](=O)[O-])c2)cn1`, the EC50 was 0.035 µM in experiment [1]; > 128 µM in experiment [2]; 2.4 µM in experiment [3]; > 128 µM in experiment [4]; > 128 µM in experiment [5]; > 128 µM in experiment [6]. Besides, the figures for the EC50 in experiment [7] and in experiment [8] were > 128 µM and 0.017 µM, respectively.

As to `O=[N+]([O-])c1cc(Br)ccc1CC(O)c1ccc(-n2cccn2)cc1` (stereo not given), the EC50 in experiment [1] was 0.25 µM.

As to `Cc1cc(CCCOc2c(C)cc(-c3noc(C(F)(F)F)n3)cc2C)on1` [3-(3,5-dimethyl-4-(3-(3-methylisoxazol-5-yl)propoxy)phenyl)-5-(trifluoromethyl)-1,2,4-oxadiazole], the EC50 in experiment [1] stood at 0.03 µM; in experiment [2], 0.015 µM; in experiment [3], 0.004 µM; in experiment [4], 0.011 µM; in experiment [5], 0.49 µM; in experiment [6] it was 0.015 µM. The EC50 in experiment [7] was > 128 µM; in experiment [8], 0.167 µM.

As to `Cn1cc(-c2ccc(C[C@@H](O)c3ccc(-n4cccn4)cc3)c([N+](=O)[O-])c2)cn1`, the EC50 was 2.5 µM in experiment [1]; > 128 µM in experiment [2]; 0.19 µM in experiment [3]; > 128 µM in experiment [4]; > 128 µM in experiment [5]; > 128 µM in experiment [6]. The EC50 in experiment [7] and in experiment [8] was > 128 µM in each case.

As for `Cn1cc(-c2ccc(CC(O)c3ccc(-n4cccn4)cc3)c([N+](=O)[O-])c2)cn1` (stereo not given), the EC50 in experiment [1] was found to be 0.2 µM.

For `COC(=O)c1ccc(CC(O)c2ccc(-c3ccncc3)cc2)c([N+](=O)[O-])c1` (stereo not given), in experiment [1], the EC50 stood at 6.4 µM.

Source of the values: BindingDB's records for doi:10.1021/acs.jmedchem.8b00931 (Umr 7273 Cnrs, 2018).
